Source: ChEMBL document CHEMBL3132765, “Discovery of novel RIP derivatives by alanine scanning for the treatment of S. aureus infections” (Medchemcomm, 2013)
Converted amounts (≈) assume the structure as drawn. The source made the active and inactive calls. The rule behind the calls is not given here. Peptide text beside a SMILES is read from it.

Columns and labels:
Staphylococcus aureus [1] = assay: Antimicrobial activity against methicillin-susceptible Staphylococcus aureus Smith diffuse infected in Wistar rat assessed as reduction in infection administered as solution by soaking of graft after 7 days relative to control; format: functional, organism-based
Staphylococcus aureus [2] = assay: Antimicrobial activity against methicillin-susceptible Staphylococcus aureus Smith diffuse assessed as inhibition of biofilm formation by cell-based microbroth dilution method; format: functional
Rattus norvegicus [3] = assay: Toxicity in Wistar rat infected with methicillin-susceptible Staphylococcus aureus Smith diffuse assessed as vomiting administered as solution by soaking of graft after 7 days; format: organism-based; details: in vivo, other, 168 h
Rattus norvegicus [4] = assay: Toxicity in Wistar rat infected with methicillin-susceptible Staphylococcus aureus Smith diffuse assessed as diarrhea administered as solution by soaking of graft after 7 days; format: organism-based; details: in vivo, other, 168 h
Rattus norvegicus [5] = assay: Toxicity in Wistar rat infected with methicillin-susceptible Staphylococcus aureus Smith diffuse assessed as anorexia administered as solution by soaking of graft after 7 days; format: organism-based; details: in vivo, other, 168 h
Rattus norvegicus [6] = assay: Toxicity in Wistar rat infected with methicillin-susceptible Staphylococcus aureus Smith diffuse assessed as perigraft inflammation administered as solution by soaking of graft after 7 days; format: organism-based; details: in vivo, other, 168 h
Rattus norvegicus [7] = assay: Toxicity in Wistar rat infected with methicillin-susceptible Staphylococcus aureus Smith diffuse assessed as mortality administered as solution by soaking of graft after 7 days; format: organism-based; details: in vivo, other, 168 h
Rattus norvegicus [8] = assay: Toxicity in Wistar rat infected with methicillin-susceptible Staphylococcus aureus Smith diffuse assessed as behavioral alterations administered as solution by soaking of graft after 7 days; format: organism-based; details: in vivo, other, 168 h
Rattus norvegicus [9] = assay: Toxicity in Wistar rat infected with methicillin-susceptible Staphylococcus aureus Smith diffuse assessed as behavioral alterations at 7 mg/kg administered as solution by soaking of graft after 7 days; format: organism-based; design: dose 7 mg/kg; details: in vivo, other, 168 h
Rattus norvegicus [10] = assay: Toxicity in Wistar rat infected with methicillin-susceptible Staphylococcus aureus Smith diffuse assessed as anorexia at 7 mg/kg administered as solution by soaking of graft after 7 days; format: organism-based; design: dose 7 mg/kg; details: in vivo, other, 168 h
Rattus norvegicus [11] = assay: Toxicity in Wistar rat infected with methicillin-susceptible Staphylococcus aureus Smith diffuse assessed as diarrhea at 7 mg/kg administered as solution by soaking of graft after 7 days; format: organism-based; design: dose 7 mg/kg; details: in vivo, other, 168 h
Rattus norvegicus [12] = assay: Toxicity in Wistar rat infected with methicillin-susceptible Staphylococcus aureus Smith diffuse assessed as mortality at 7 mg/kg administered as solution by soaking of graft after 7 days; format: organism-based; design: dose 7 mg/kg; details: in vivo, other, 168 h
Rattus norvegicus [13] = assay: Toxicity in Wistar rat infected with methicillin-susceptible Staphylococcus aureus Smith diffuse assessed as vomiting at 7 mg/kg administered as solution by soaking of graft after 7 days; format: organism-based; design: dose 7 mg/kg; details: in vivo, other, 168 h
Rattus norvegicus [14] = assay: Toxicity in Wistar rat infected with methicillin-susceptible Staphylococcus aureus Smith diffuse assessed as perigraft inflammation at 7 mg/kg administered as solution by soaking of graft after 7 days; format: organism-based; design: dose 7 mg/kg; details: in vivo, other, 168 h

Compound | Activity (Staphylococcus aureus [1]) | MIC (Staphylococcus aureus [2]) | Activity (Rattus norvegicus [3]) | Activity (Rattus norvegicus [4]) | Activity (Rattus norvegicus [5]) | Activity (Rattus norvegicus [6]) | Activity (Rattus norvegicus [7]) | Activity (Rattus norvegicus [8]) | Activity (Rattus norvegicus [9]) | Activity (Rattus norvegicus [10]) | Activity (Rattus norvegicus [11]) | Activity (Rattus norvegicus [12]) | Activity (Rattus norvegicus [13]) | Activity (Rattus norvegicus [14])
H-YSPWANF-NH2 | Active | > 128 µg/mL | Non-toxic | Non-toxic | Non-toxic | Non-toxic | Non-toxic | Non-toxic | – | – | – | – | – | –
H-YAPWTNF-NH2 | Active | > 128 µg/mL | Non-toxic | Non-toxic | Non-toxic | Non-toxic | Non-toxic | Non-toxic | – | – | – | – | – | –
CCCCCCCCCC(=O)N[C@@H](Cc1c[nH]c2ccccc12)C(=O)N[C@H](CC(N)=O)C(=O)N[C@@H](CC(=O)O)C(=O)N[C@@H]1C(=O)NCC(=O)N[C@@H](CCCN)C(=O)N[C@@H](CC(=O)O)C(=O)N[C@H](C)C(=O)N[C@@H](CC(=O)O)C(=O)NCC(=O)N[C@H](CO)C(=O)N[C@@H]([C@H](C)CC(=O)O)C(=O)N[C@@H](CC(=O)c2ccccc2N)C(=O)O[C@@H]1C | – | 4 µg/mL (≈ 2.47 µM) | – | – | – | – | – | – | Non-toxic | Non-toxic | Non-toxic | Non-toxic | Non-toxic | Non-toxic
H-YSPATNF-NH2 | Active | > 128 µg/mL | Non-toxic | Non-toxic | Non-toxic | Non-toxic | Non-toxic | Non-toxic | – | – | – | – | – | –
C[C@@H](O)[C@H](NC(=O)[C@H](Cc1c[nH]c2ccccc12)NC(=O)[C@@H]1CCCN1)C(=O)N[C@@H](CC(N)=O)C(N)=O (H-PWTN-NH2) | Active | > 128 µg/mL | Non-toxic | Non-toxic | Non-toxic | Non-toxic | Non-toxic | Non-toxic | – | – | – | – | – | –
H-YSPWTAF-NH2 | Active | > 128 µg/mL | Non-toxic | Non-toxic | Non-toxic | Non-toxic | Non-toxic | Non-toxic | – | – | – | – | – | –
H-YSPWTNA-NH2 | Active | > 128 µg/mL | Non-toxic | Non-toxic | Non-toxic | Non-toxic | Non-toxic | Non-toxic | – | – | – | – | – | –
H-ASPWTNF-NH2 | Active | > 128 µg/mL | Non-toxic | Non-toxic | Non-toxic | Non-toxic | Non-toxic | Non-toxic | – | – | – | – | – | –
C[C@@H](O)[C@H](NC(=O)[C@@H](N)Cc1c[nH]c2ccccc12)C(=O)N[C@@H](CC(N)=O)C(=O)N[C@@H](Cc1ccccc1)C(N)=O (H-WTNF-NH2) | Active | > 128 µg/mL | Non-toxic | Non-toxic | Non-toxic | Non-toxic | Non-toxic | Non-toxic | – | – | – | – | – | –
H-YSPWTNF-NH2 | Active | – | – | – | – | – | – | – | – | – | – | – | – | –
H-YSAWTNF-NH2 | Active | > 128 µg/mL | Non-toxic | Non-toxic | Non-toxic | Non-toxic | Non-toxic | Non-toxic | – | – | – | – | – | –
C[C@@H](O)[C@H](NC(=O)[C@H](Cc1c[nH]c2ccccc12)NC(=O)[C@@H]1CCCN1C(=O)[C@@H](N)CO)C(N)=O (H-SPWT-NH2) | Active | > 128 µg/mL | Non-toxic | Non-toxic | Non-toxic | Non-toxic | Non-toxic | Non-toxic | – | – | – | – | – | –
NC(=O)[C@H](Cc1c[nH]c2ccccc12)NC(=O)[C@@H]1CCCN1C(=O)[C@H](CO)NC(=O)[C@@H](N)Cc1ccc(O)cc1 (H-YSPW-NH2) | Active | > 128 µg/mL | Non-toxic | Non-toxic | Non-toxic | Non-toxic | Non-toxic | Non-toxic | – | – | – | – | – | –
